Entries after “also recorded” stand apart in the source; their conditions may differ.
Assays:
[1] = target: T1, Brdt(BD1) (Homo sapiens, UniProt Q58F21); test: HTRF BET selectivity profile, Brdt(BD1); type: binding
T1 construct: GST tagged bromodomain proteins were purchased from BPS Bioscience; purchased BPS Bioscience
Summary of the method: (§1)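 HTRF peptide-displacement assay with GST-tagged bromodomains and histone peptide, 0.5% final DMSO, incubated 3 h, 6 h or overnight at room temperature or 4 °C depending on bromodomain. 665/620 nm ratio read; inhibition scaled between DMSO and no-peptide controls, IC50 in triplicate.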

[2] = target: T2, Brd4(BD2) (Homo sapiens, UniProt O60885); test: HTRF BET selectivity profile, Brd4(BD2); type: binding
T2 construct: GST tagged bromodomain proteins were purchased from BPS Bioscience; purchased BPS Bioscience
Summary of the method: as §1

[3] = target: T3, BRD4(BD1) (Homo sapiens, UniProt O60885); test: Isothermal Titration Calorimetry; type: binding; conditions: Brd4 (BD1), FIG. 1; read-out: KD by ITC (orthogonal assay)
Summary of the method: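 […]; general protocol uses 13 injections at 25° C, with protein titrant at 10–15× the compound concentration. Integrated heats fitted to a one-site model for ΔH and KA, with ΔG and TΔS derived from these.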

[4] = tested on: Jurkat cells; test: Cell Titer-Glo cell viability assay, Jurkat; type: cell-based; conditions: Homo sapiens, 72 h, mean of three experiments, NA = IC50 > maximal concentration used
Summary of the method: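 Jurkat was grown in RPMI-1640 and Molm14 in MEMα, both with 10% FBS. Viability was read by CellTiter-Glo luminescence, and EC50 was obtained by non-linear regression of dose-response curves.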

[5] = tested on: 61 bromodomains; test: Thermal shift assay selectivity profile on 61 bromodomains; type: binding; conditions: compound at 25 μM, 25 µM
Procedure: (§2) FIG. 3. Thermal Shift Assay (TSA) of 43c. The evaluation was performed on 61 bromodomains. A cut-off at +/−3.5° C. was set.
(§3) TSA “Bromoscan” assays (Reaction Biology) were performed in 384 well RT-PCR plate (BioRad) with a total working volume of 15 μL. The “BromoMelT™, containing the 61 GST- or His-tagged-bromodomains, SYPRO® Orange and a mix compounds as control, was purchased from Reaction Biology. For each point, 3 μL of protein (1×) and 12 μL master mix (buffer+SYPRO® Orange+compound at 25 μM or control mix compounds or DMSO (0.5%)) were mixed in plate. The plate was placed in a CFX384 RTQPC (BioRad), and heated 10 seconds at 25° C., then the temperature was increased from 25° C. to 90° C., by increment of 0.5° C. every 30 seconds. The fluorescence was recorded using FRET filters.

[6] = target: T3, BRD4(BD1); test: BROMOscan assays; type: binding
[7] = target: Brd3(BD1) (Homo sapiens, UniProt Q15059); test: Thermal shift assay (BromoMELT), Brd3 (BD1); type: binding; parameters: containing the 61 GST- or His-tagged-bromodomains; purchased Reaction Biology; conditions: compound at 25 μM, cut-off +/−3.5° C.
Procedure: as §2, §3

Brd3(BD1), sequence (Q15059 34-140 limits assumed): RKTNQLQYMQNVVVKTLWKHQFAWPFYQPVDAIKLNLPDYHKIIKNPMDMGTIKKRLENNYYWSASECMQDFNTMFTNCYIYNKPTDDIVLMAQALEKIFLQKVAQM

For `CCn1cnc2c1c(=O)[nH]c(=O)n2Cc1ccc(CNS(=O)(=O)c2ccc(OC3CCOCC3)c(F)c2)cc1` [Compound 43c], which IC50 [1] is on record?
The IC50 was 352 nM.

What about the IC50 [2] of the same compound?
The IC50 was 2310 nM.

What about the Kd [3] of the same compound?
Its Kd is 90 nM.

And the IC50 [4]?
The IC50 was 17600 nM.

And the “Bromodomain selectivity profile by thermal shift assay” value [5]?
Its value is “stabilize only BET proteins; also recorded: stabilizes only BRD4 (BD1) and BRD3 (BD1)”.

What about the Kd [6] of the same compound?
Its Kd is 32 nM.

What about the “selectivity ratio to the first bromodomain, BROMOscan” value [6] of the same compound?
Its value is “up to 313 fold”.

What about the ΔTm at 25 µM [7] of the same compound?
The ΔTm at 25 µM was 4.5 °C.

— patent publication US11180510B2, “Xanthine derivatives and uses thereof as inhibitors of bromodomains of BET proteins” (Centre national de la recherche scientifique, priority 2017, dated 2021)
